Assay results taken from patent publication US20230184749A1, “DRUG RANKING METHOD AND SYSTEM, COMPARISON METHOD FOR DRUG RANKING METHOD AND NEW USE OF DRUG SELECTED USING THE SAME” (National Tsing Hua University, priority 2021, published 2023).
Like-named read-outs stand apart in the source and are kept apart here.

System: SARS-CoV-2
Assay: Plaque assay, anti-SARS-CoV-2 activity in Vero E6 cells
Assay type: cell-based, SARS-CoV-2 (hCoV-19/Taiwan/NTU13/2020)
Details: for average percentage of suppression of SARS-CoV-2 replication / plaque reduction compared to the negative control groups (FIG. 13): Vero E6 cells; for average percentage of suppression of SARS-CoV-2 replication: 5 days of incubation; for EC50: Severe acute respiratory syndrome coronavirus 2, Vero C1008, read-out: EC50 (minimal concentration required to reduce 50% of plaque count); for plaque reduction compared to the negative control groups (FIG. 13): at least 10 μM

Row | SMILES | average percentage of suppression of SARS-CoV-2 replication (10 μM) [%] | average percentage of suppression of SARS-CoV-2 replication (40 μM) [%] | EC50 [µM] | plaque reduction compared to the negative control groups (FIG. 13) | EC50 (SARS-CoV-2 infected Vero E6 cells, regression analysis of dose-response curves) [µM]
1 | CC(Cc1ccc(O)cc1)NCC(O)c1cc(O)cc(O)c1 (stereo not shown) [Fenoterol, 5-[1-hydroxy-2-[1-(4-hydroxyphenyl)propan-2-ylamino]ethyl]benzene-1,3-diol] | 17.0 | 68.9 | 30 | effective in suppressing SARS-CoV-2 replication | 
2 | CCCCCN=C(N)N/N=C/c1c[nH]c2ccc(OC)cc12 [Tegaserod, 1-[(E)-(5-methoxy-1H-indol-3-yl)methylideneamino]-2-pentylguanidine] | 54.3 |  |  | effective in suppression SARS-CoV-2 replication | < 10
